# Results taken from patent US6737383B1, “Herbicidal oxadiazolidines” (priority 1999, dated 2004).
# Experiments:
# crabgrass = experiment: Test B pre/postemergence crabgrass; format: in vivo, Digitaria sanguinalis
# In short: (§1)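 Test chemicals in a non-phytotoxic solvent mixture with surfactant were sprayed preemergence onto planted seeds and postemergence onto plants 2 to 18 cm tall (1- to 4-leaf stage). After twelve to sixteen days in a greenhouse, injury was visually rated against untreated controls from 0 (no effect) to 10 (complete control).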
# wheat = experiment: Test B pre/postemergence wheat; format: in vivo, Triticum aestivum
# In short: as §1
# wild oat = experiment: Test B pre/postemergence wild oat; format: in vivo, Avena fatua
# In short: as §1
# rice = experiment: Test B flood test rice; format: in vivo, Oryza sativa; conditions: for Plant response rating, Rice (0 to 10 scale, 0 is no effect, 10 is complete control) / Rice plant response rating (0 to 10 scale, 0 is no effect, 10 is complete control): visual evaluation after twelve to sixteen days; for Rice plant response rating (0 to 10 scale, 0 is no effect, 10 is complete control): under heading Pre-emergence
# In short: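 Read-out is a visual response score from 0 (no effect) to 10 (complete control), assigned by comparison with untreated controls. Treatment was applied at the 2-leaf stage, and plants stayed in the greenhouse for twelve to sixteen days before scoring.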
# [1] = Preemergence, Rate 31 g/ha, visual rating, scale 0 to 10 (0 no effect, 10 complete control)
# [2] = Preemergence, Rate 62 g/ha, scale of 0 to 10 where 0 is no effect and 10 is complete control
# [3] = Preemergence, Rate 250 g/ha, scale of 0 to 10 where 0 is no effect and 10 is complete control
# [4] = Rate 62 g/ha, Postemergence, scale of 0 to 10 where 0 is no effect and 10 is complete control
# [5] = Rate 125 g/ha, Postemergence, scale 0 to 10
# [6] = Rate 125 g/ha, Preemergence, scale of 0 to 10 where 0 is no effect and 10 is complete control
# [7] = Rate 31 g/ha, Pre-emergence section (flood test species), scale 0 to 10
# [8] = Rate 62 g/ha, headed Pre-emergence (flood test species), scale 0 to 10 (0 no effect, 10 complete control)
# [9] = Rate 125 g/ha, Pre-emergence, flood test species, scale 0 to 10 where 0 is no effect and 10 is complete control
# [10] = Rate 250 g/ha, Pre-emergence, flood-test species, scale 0 to 10, 0 is no effect, 10 is complete control
# [11] = Postemergence, Rate 125 g/ha, scale 0 to 10, 0 is no effect, 10 is complete control
# [12] = Postemergence, Rate 250 g/ha, scale 0 to 10, 0 is no effect, 10 is complete control
# [13] = Preemergence, Rate 62 g/ha, scale 0 to 10 (0 no effect, 10 complete control)
# [14] = Preemergence, Rate 500 g/ha, scale of 0 to 10 where 0 is no effect and 10 is complete control
# [15] = Rate 500 g/ha, Postemergence, scale 0 to 10, 0 no effect, 10 complete control
# [16] = Rate 62 g/ha, flood test species, Pre-emergence
# [17] = Rate 125 g/ha, flood test species
# [18] = Rate 500 g/ha, Pre-emergence, flood test species, scale 0 to 10 (0 no effect, 10 complete control)
# [19] = Postemergence, Rate 250 g/ha, scale 0 to 10
# [20] = Preemergence, Rate 125 g/ha, scale of 0 to 10 where 0 is no effect and 10 is complete control
# [21] = Preemergence, Rate 250 g/ha, scale 0 to 10, 0 is no effect, 10 is complete control
# [22] = Preemergence, Rate 500 g/ha, scale 0 to 10, 0 is no effect, 10 is complete control
# [23] = Rate 62 g/ha, Postemergence, scale 0 to 10 (0 no effect, 10 complete control)
# [24] = Rate 125 g/ha, Postemergence, scale 0 to 10, 0 is no effect, 10 is complete control
# [25] = Postemergence, Rate 31 g/ha, visual rating, scale 0 to 10 (0 no effect, 10 complete control)
# [26] = Rate 125 g/ha, Postemergence, scale of 0 to 10 where 0 is no effect and 10 is complete control
# [27] = Rate 250 g/ha, Postemergence, scale of 0 to 10 where 0 is no effect and 10 is complete control
compound,measurement,setting,value
CC(=O)Cn1c(=O)on(C(=O)N(c2ccc(F)cc2)C(C)C)c1=O [Compound 217],Crabgrass plant response rating,crabgrass; [1],0
same,Crabgrass plant response rating,crabgrass; [2],3
same,Crabgrass plant response rating,crabgrass; [3],8
same,Crabgrass plant response rating,"crabgrass; Rate 31 g/ha, Postemergence, scale 0 to 10",0
same,Crabgrass plant response rating,crabgrass; [4],0
same,Crabgrass plant response rating,crabgrass; [5],2
same,Crabgrass plant response rating,crabgrass; [6],4
same,"Plant response rating (0 to 10; 0 is no effect, 10 is complete control), Crabgrass","crabgrass; Rate 250 g/ha, Postemergence",3
same,Wheat plant response rating,wheat; [1],0
same,Wheat plant response rating,wheat; [2],0
same,Wheat plant response rating,wheat; [3],8
same,Wheat plant response rating,wheat; [4],0
same,Wheat plant response rating,wheat; [5],2
same,Wheat plant response rating,wheat; [6],3
same,"Plant response rating (0 to 10; 0 is no effect, 10 is complete control), Wheat","wheat; Rate 250 g/ha, Postemergence",3
same,Wild oats plant response rating,wild oat; [1],0
same,Wild oats plant response rating,wild oat; [2],0
same,Wild oats plant response rating,wild oat; [3],2
same,Wild oats plant response rating,wild oat; [4],0
same,Wild oats plant response rating,wild oat; [5],0
same,Wild oats plant response rating,wild oat; [6],0
same,"Plant response rating (0 to 10; 0 is no effect, 10 is complete control), Wild oats","wild oat; Rate 250 g/ha, Postemergence",0
same,Rice plant response rating,rice; [7],0
same,Rice plant response rating,rice; [8],0
same,Rice plant response rating,rice; [9],0
same,Rice plant response rating,rice; [10],0
Cc1nsc(Cl)c1Cn1c(=O)on(C(=O)N(c2ccccc2)C(C)C)c1=O [Compound 374],"Plant response rating, Crabgrass",crabgrass; [11],0
same,"Plant response rating, Crabgrass",crabgrass; [12],0
same,"Plant response rating, Crabgrass",crabgrass; [13],6
same,Crabgrass plant response rating (0 to 10 scale),"crabgrass; Preemergence, Rate 125 g/ha",6
same,Crabgrass plant response rating,crabgrass; [3],9
same,Crabgrass plant response rating,crabgrass; [14],9
same,Crabgrass plant response rating,crabgrass; [4],0
same,"Plant response rating, Crabgrass",crabgrass; [15],3
same,"Plant response rating, Wheat",wheat; [11],0
same,"Plant response rating, Wheat",wheat; [12],0
same,"Plant response rating, Wheat",wheat; [13],0
same,Wheat plant response rating (0 to 10 scale),"wheat; Preemergence, Rate 125 g/ha",0
same,Wheat plant response rating,wheat; [3],0
same,Wheat plant response rating,wheat; [14],0
same,Wheat plant response rating,wheat; [4],0
same,"Plant response rating, Wheat",wheat; [15],0
same,"Plant response rating, Wild oats",wild oat; [11],0
same,"Plant response rating, Wild oats",wild oat; [12],0
same,"Plant response rating, Wild oats",wild oat; [13],0
same,Wild oats plant response rating (0 to 10 scale),"wild oat; Preemergence, Rate 125 g/ha",0
same,Wild oats plant response rating,wild oat; [3],0
same,Wild oats plant response rating,wild oat; [14],0
same,Wild oats plant response rating,wild oat; [4],0
same,"Plant response rating, Rice (0 to 10 scale, 0 is no effect, 10 is complete control)",rice; [16],0
same,"Rice plant response rating (0 to 10 scale, 0 is no effect, 10 is complete control)",rice; [17],0
same,Rice plant response rating,rice; [10],0
same,Rice plant response rating,rice; [18],0
CC(C)N(C(=O)n1oc(=O)n(C(C)C(=O)N(C)C)c1=O)c1ccccc1 (stereo not shown) [Compound 479],Crabgrass plant response rating,crabgrass; [19],6
same,Crabgrass plant response rating,"crabgrass; Postemergence, Rate 500 g/ha, scale of 0 to 10 where 0 is no effect and 10 is complete control",9
same,"Plant response rating, Crabgrass",crabgrass; [20],8
same,Crabgrass plant response rating,crabgrass; [21],9
same,Crabgrass plant response rating,crabgrass; [22],10
same,Crabgrass plant response rating,crabgrass; [23],2
same,Crabgrass plant response rating,crabgrass; [24],3
same,Wheat plant response rating,wheat; [19],0
same,"Plant response rating, Wheat",wheat; [2],0
same,"Plant response rating, Wheat",wheat; [20],0
same,Wheat plant response rating,wheat; [21],3
same,Wheat plant response rating,wheat; [22],7
same,Wheat plant response rating,wheat; [23],0
same,Wheat plant response rating,wheat; [24],0
same,Wild oats plant response rating,wild oat; [19],0
same,"Plant response rating, Wild oats",wild oat; [2],0
same,"Plant response rating, Wild oats",wild oat; [20],4
same,Wild oats plant response rating,wild oat; [21],5
same,Wild oats plant response rating,wild oat; [22],7
same,Wild oats plant response rating,wild oat; [23],0
same,Wild oats plant response rating,wild oat; [24],0
same,"Plant response rating, Rice (0 to 10 scale, 0 is no effect, 10 is complete control)",rice; [16],0
same,"Rice plant response rating (0 to 10 scale, 0 is no effect, 10 is complete control)",rice; [17],0
same,Rice plant response rating,"rice; Rate 250 g/ha, Pre-emergence (flood test species), scale 0 to 10, 0 is no effect, 10 is complete control",0
same,Rice plant response rating,rice; [18],0
CC(C)N(C(=O)n1oc(=O)n(C(C)C)c1=O)c1cnccn1 [Compound 296],Crabgrass plant response rating,crabgrass; [25],0
same,Crabgrass plant response rating,crabgrass; [1],0
same,Crabgrass plant response rating,crabgrass; [2],0
same,Crabgrass plant response rating,crabgrass; [3],0
same,Crabgrass plant response rating,crabgrass; [23],0
same,Crabgrass plant response rating,crabgrass; [26],0
same,Crabgrass plant response rating,crabgrass; [6],0
same,"Plant response rating, Crabgrass",crabgrass; [27],0
same,Wheat plant response rating,wheat; [25],0
same,Wheat plant response rating,wheat; [2],0
same,Wheat plant response rating,wheat; [3],0
same,Wheat plant response rating,wheat; [23],0
same,Wheat plant response rating,wheat; [26],0
same,Wheat plant response rating,wheat; [6],0
same,"Plant response rating, Wheat",wheat; [27],0
same,Wild oats plant response rating,wild oat; [25],0
same,Wild oats plant response rating,wild oat; [2],0
same,Wild oats plant response rating,wild oat; [3],0
same,Wild oats plant response rating,wild oat; [23],0
same,Wild oats plant response rating,wild oat; [26],0
same,"Plant response rating, Wild oats",wild oat; [27],0
same,Rice plant response rating,rice; [7],0
same,Rice plant response rating,rice; [8],0
same,Rice plant response rating,rice; [9],0
same,Rice plant response rating,rice; [10],0
